From patent US12540115B2, “Inhibitors of phospholipid synthesis and methods of use” (priority 2019, dated 2026)

Assays:
[1] = tested on: mouse hepatocellular carcinoma lines; assay: Cancer cell proliferation, MTT assay on mouse hepatocellular carcinoma lines; format: cell-based; conditions: treated 1-3 days, dosage range 1 mM to 0.1 nM; vs untreated (DMSO)
Method: (§1) FIG. 1-26 illustrate various exemplary GPAT inhibitors that suppress cancer cell proliferation. With reference to FIG. 1-26: BCL stands for Burkitt lymphoma line, all experiments on BCL were done using trypan blue and cell counts. Cells are treated 1-3 days with dosage range 1 mM to 0.1 nM. RCC stands for renal cell carcinoma, all experiments on RCC were in vivo experiments. Tumors are treated with dosage range 0.1 mg/kg to 100 mg/kg for X days, wherein X ranges from 7 to 30 days. All experiments are done in MTT assay on mouse hepatocellular carcinoma lines that are treated 1-3 days with the dosage range from 1 mM to 0.1 nM. The bar in each of FIGS. 1-26 entitled “Untreated” refers to a sample without an exemplary GPAT inhibitor compound, diluted in DMSO solvent.

Burkitt lymphoma line = Burkitt lymphoma line proliferation, trypan blue and cell counts; format: cell-based; conditions: treated 1-3 days, dosage range 1 mM to 0.1 nM
Method: as §1

renal cell carcinoma = assay: Renal cell carcinoma (RCC) in vivo tumor experiments; parameters: species or system mice; conditions: dosage range 0.1 mg/kg to 100 mg/kg for 7 to 30 days
Method: as §1
MYC RCC mice were generated by crossing FVB/N-Tg(tetO-MYC)28aBop/J mice for MYC with Tg(Ggt1-tTA) #Agoc or (GGT-tTA) for kidney specificity. MYC HCC mice were generated by crossing FVB/N-Tg(tetO-MYC)28aBop/J mice for MYC with Tg(Cebpb-tTA)5Bjd or (LAP-tTA) for liver specificity. All parental lines had undergone at least 10 generations of backcrossing. MYC RCC and MYC HCC mice were bred on doxycycline until 4 weeks of age, when doxycycline was replaced with water for at least 2 weeks for tumorigenesis depending on the experiment described in the patent. […]

MYC-induced tumors = assay: FSG67 in MYC-induced tumors, xenograft and primary mouse models; format: in vivo
From the text: We present a comprehensive overview of how the MYC oncogene controls lipogenesis to promote tumorigenesis. We find that MYC globally regulates the expression of key genes and their resulting proteins and metabolites in lipogenesis for human and murine cell lines as well as for transgenic mouse models. […] Desorption electrospray ionization mass spectrometric imaging (DESI-MSI) from tissue samples of several conditional transgenic mouse models identified in vivo metabolic changes in simple fatty acids and in complex phospholipids induced by MYC. […] Strong correlation between these in situ changes and elevation of gene expressions of cytidinediphosphate diacylglycerol pathway genes as well as fatty acid elongase genes were found. By administering FSG67, which inhibits GPAT, MYC-induced tumorigenesis was blocked, metabolic changes were suppressed, and tumors regressed in xenograft and primary mouse models.

[2] = biological target: glycerol 3-phosphate acyltransferase (GPAT); conditions: read-out: IC50, inhibitor of glycerol 3-phosphate acyltransferase (GPAT); cited from earlier work
diet-induced obese mice = conditions: cited from earlier work

CCCCCCCCCS(=O)(=O)Nc1ccccc1C(=O)O [BTX 100]
cancer cell proliferation [1]: suppresses cancer cell proliferation

CC(C)CS(=O)(=O)Nc1ccccc1C(=O)O [BTX 106]
Burkitt lymphoma cell proliferation (Burkitt lymphoma line): suppresses Burkitt lymphoma cell proliferation

CCOCCS(=O)(=O)Nc1ccccc1C(=O)O [BTX 108]
cancer cell proliferation [1]: suppresses cancer cell proliferation

CC(C)S(=O)(=O)Nc1ccccc1C(=O)O [BTX 205]
renal cell carcinoma cell proliferation (renal cell carcinoma): suppresses renal cell carcinoma cell proliferation

CS(=O)(=O)Nc1ccccc1-c1nnn[nH]1 [BTX 281]
cancer cell proliferation [1]: suppresses cancer cell proliferation

CS(=O)(=O)Nc1ccccc1C(=O)O [BTX 601]
cancer cell proliferation [1]: suppresses cancer cell proliferation

CS(=O)(=O)Nc1ccccc1C#N [BTX 671]
cancer cell proliferation [1]: suppresses cancer cell proliferation

CS(=O)(=O)Nc1ccccc1CO [BTX 931]
Burkitt lymphoma cell proliferation (Burkitt lymphoma line): suppresses Burkitt lymphoma cell proliferation

CCCCS(=O)(=O)Nc1ccccc1-c1nnn[nH]1 [BTX 982]
Burkitt lymphoma cell proliferation (Burkitt lymphoma line): suppresses Burkitt lymphoma cell proliferation

O=C(O)c1ccccc1NS(=O)(=O)Cc1ccccc1 [BTX 1010]
cancer cell proliferation [1]: suppresses cancer cell proliferation

CCCCCCCCCS(=O)(=O)Nc1ccccc1F [BTX 1101]
cancer cell proliferation [1]: suppresses cancer cell proliferation

CCCCCCCCCS(=O)(=O)Nc1ccccc1Cl [BTX 2111]
cancer cell proliferation [1]: suppresses cancer cell proliferation

CCCCCCCCCS(=O)(=O)Nc1ccccc1Br [BTX 2121]
cancer cell proliferation [1]: suppresses cancer cell proliferation

CCCCCCCCCS(=O)(=O)N1C(=O)OCc2ccccc21 [BTX 2191]
cancer cell proliferation [1]: suppresses cancer cell proliferation

CCCCCCCCCS(=O)(=O)Nc1ccccc1S(C)(=O)=O [BTX 4171]
cancer cell proliferation [1]: suppresses cancer cell proliferation

CCCCCCCCCS(=O)(=O)Nc1ccccc1S(N)(=O)=O [BTX 8151]
Burkitt lymphoma cell proliferation (Burkitt lymphoma line): suppresses Burkitt lymphoma cell proliferation

CCCCCCCCCS(=O)(=O)Nc1ccccc1C(=O)NS(=O)(=O)C(F)(F)F [BTX 9141]
Burkitt lymphoma cell proliferation (Burkitt lymphoma line): suppresses Burkitt lymphoma cell proliferation

CCCCCCCCCNS(=O)(=O)c1ccccc1C(=O)O [BTX 9161]
cancer cell proliferation [1]: suppresses cancer cell proliferation

CCCCCCCCCN1C(=N)c2ccccc2S1(=O)=O [BTX 19102]
cancer cell proliferation [1]: suppresses cancer cell proliferation

CCCCCCCCCS(=O)(=O)Nc1ccccc1CO [BTX 83009]
cancer cell proliferation [1]: suppresses cancer cell proliferation

NC1=NS(=O)(=O)c2ccccc21 [BTX 291002]
cancer cell proliferation [1]: suppresses cancer cell proliferation

N#Cc1ccccc1S(N)(=O)=O [BTX 491001]
cancer cell proliferation [1]: suppresses cancer cell proliferation

CCCCCCCCCS(=O)(=O)Nc1ccccc1C(=O)O [FSG67, 2-(Nonylsulfonamido)benzoic acid]
MYC-induced tumorigenesis (MYC-induced tumors): blocked | metabolic changes (MYC-induced tumors): suppressed | tumors (regression) (MYC-induced tumors): regressed | IC50 [2]: 24 µM | body weight and adiposity (diet-induced obese mice): decrease body weight and adiposity | energy utilization as fatty acid oxidation (diet-induced obese mice): enhance energy utilization as fatty acid oxidation | food intake (diet-induced obese mice): reduce food intake | hepatic steatosis (diet-induced obese mice): reverse hepatic steatosis | insulin sensitivity (diet-induced obese mice): enhance insulin sensitivity
